In US20250214925A1, “CATIONIC LIPID, LIPOSOME, LIPID NANOPARTICLE, AND USE” (CARCELL BIOPHARMA LTD., priority 2022, published 2025):

Assays:
[1] = tested on: mice; assay: In vivo delivery of Ffluc mRNA LNP in mice, intramuscular administration, luminescence relative to MC3; parameters: species or system mice (female Balb/C); settings: fold change in luminescence intensity relative to MC3; 50 μL of 0.1 mg/mL mRNA LNP into right thigh; 6 h after injection
Description: The prepared encapsulation solution was applied to mice in the following manner, and its delivery efficiency in mice was tested. Among them, DLin-MC3-DMA (MC3) was a cationic liposome for delivering small nucleic acids that was approved by the FDA for marketing in 2018, which has high nucleic acid drug delivery efficiency and biosafety, and was usually used as the industry gold standard in the screening process of cationic lipids. In the evaluation of mice experiments, the ratio of nucleic acid delivery efficiency normalized to MC3 was greater than 0.1, which was considered to be a cationic lipid with high delivery efficiency.
The LNP solution was diluted with 50 mM TBS, pH 7.4 to a concentration of 0.1 mg/mL mRNA.
2. The mice involved in this study were female Balb/C, weighing 18-22 g, 6-8 weeks old, with 5 mice in each group.
3. The dosing solution was kept at 4° C. prior to injection.
4. 50 μL of LNP solution was injected into the right thigh of the mice.
5. The mice were injected intraperitoneally with 200 μL of 1.5 mg/mL D-luciferin solution 6 h after injection.
6. The in vivo luminescence images of the mice were obtained using the IVIS system (Aniview).
7. The luminescence intensity of each mice was measured using Aniview software.
8. MC3 lipid nanoparticles were used as a positive control. The in vivo efficacy of each cationic lipid tested was recorded as the fold change in luminescence intensity relative to MC3 (ratio normalized to MC3).

[2] = mRNA encapsulation efficiency of LNP by Ribogreen assay; assay type: physicochemical; settings: LNP: 50% cationic lipid, 38.5% cholesterol, 10% DSPC, 1.5% DMG-PEG2000; Ffluc mRNA
Procedure, shortened: (§1)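 LNPs of cationic lipid/cholesterol/DSPC/DMG-PEG2000 at 50/38.5/10/1.5 mol% in ethanol, mixed with Ffluc mRNA at 0.2 mg/mL in 10 mM pH 4.0 citrate via T-mixer at 40 mL/min. Dialyzed overnight against 50 mM Tris-buffered saline pH 7.4 and sieved; PDI by dynamic light scattering, encapsulation by Ribogreen.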

[3] = LNP size and PDI by dynamic laser light scattering; assay type: physicochemical; settings: LNP: 50% cationic lipid, 38.5% cholesterol, 10% DSPC, 1.5% DMG-PEG2000; Ffluc mRNA
Procedure, shortened: as §1

[4] = tested on: mice; assay: In vivo delivery of Ffluc mRNA LNP in mice, intravenous administration, luminescence relative to MC3; parameters: species or system mice (female Balb/C); settings: fold change in luminescence intensity relative to MC3; 0.06 mg/kg tail vein; 6 h after injection
Procedure, shortened: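 Female Balb/C mice (18-22 g, 6-8 weeks, n=5) received Ffluc mRNA LNP at 0.06 mg/kg by tail vein in 50 mM TBS pH 7.4. Six hours later, intraperitoneal D-luciferin was given and whole-body luminescence imaged, with each lipid reported as fold change relative to MC3 LNP.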

Row | SMILES | In Vivo Efficacy Normalized To Mc3 In Mice (Intramuscular Injection) [1] | Encapsulation Rate [2] [%] | PDI [3] | Size (nm) [3] [nm] | In Vivo Efficacy Normalized To Mc3 In Mice (Intravenous Injection) [4]
1 | CCCCCCC/C(=C/C(=O)OCCCCCCN(CCCO)CCCCCCOC(=O)/C=C(\CCCC)CCCCCCC)CCCC [CPL-074, ((3-hydroxypropyl)azanediyl)bis(hexane-6,1-diyl) (2E,2′E)-bis(3-butyldec-2-enoate)] | 7.93 | 99 | 0.3691 | 95.7 | 2.40
2 | CCCCCCCCCC/C(=C/C(=O)OCCCCCCN(CCCO)CCCCCCOC(=O)/C=C(\CCCCCCCC)CCCCCCCCCC)CCCCCCCC [CPL-079, ((3-hydroxypropyl)azanediyl)bis(hexane-6,1-diyl) (2E,2′E)-bis(3-octyltridec-2-enoate)] | 1.30 | 94 | 0.1557 | 94.46 | 4.95
3 | CCCCCC/C(=C/C(=O)OCCCCCCCCCCN(CCCO)CCCCCCCCCCOC(=O)/C=C(\CCC)CCCCCC)CCC [CPL-148, ((3-hydroxypropyl)azanediyl)bis(decane-10,1-diyl) (2E,2′E)-bis(3-propylnon-2-enoate)] | 2.56 | 93 | 0.1437 | 90.31 | 2.15
4 | CCCCCCCCCC/C(=C\C(=O)OCCCCN(CCCO)CCCCOC(=O)/C=C(/CCCCC)CCCCCCCCCC)CCCCC [CPL-026, ((3-hydroxypropyl)azanediyl)bis(butane-4,1-diyl) (2Z,2′Z)-bis(3-pentyltridec-2-enoate)] | 0.92 | 95 | 0.2143 | 71.34 | 2.51
5 | CCCCC/C(=C/C(=O)OCCCCCCCCCN(CCCO)CCCCCCCCCOC(=O)/C=C(\CCCC)CCCCC)CCCC [CPL-133-01, ((3-hydroxypropyl)azanediyl)bis(nonane-9,1-diyl) (2E,2′E)-bis(3-butyloct-2-enoate)] | 6.61 | 97 | 0.0569 | 80.25 | 3.54
6 | CCCCCCCCCC/C(=C/C(=O)OCCCCCCCN(CCCO)CCCCCCCOC(=O)/C=C(\CCCCC)CCCCCCCCCC)CCCCC [CPL-092-01, ((3-hydroxypropyl)azanediyl)di(heptane-7,1-diyl) (2E,2′E)-di(3-pentyltridec-2-enoate)] | 2.20 | 97 | 0.21 | 98.6 | 8.96
7 | CCCCCCCC/C(=C/C(=O)OCCCCCCCCCN(CCCO)CCCCCCCCCOC(=O)/C=C(\CCC)CCCCCCCC)CCC [CPL-127, ((3-hydroxypropyl)azanediyl)bis(nonane-9,1-diyl) (2E,2′E)-bis(3-propylundec-2-enoate)] | 2.37 | 92 | 0.0486 | 94.43 | 2.54
8 | CCCCCCCCCC/C(=C/C(=O)OCCCCCCCCCCCN(CCCO)CCCCCCCCCCCOC(=O)/C=C(\CCCCC)CCCCCCCCCC)CCCCC [CPL-180-01, ((3-hydroxypropyl)azanediyl)bis(undecane-11,1-diyl) (2E,2′E)-bis(3-pentyltridec-2-enoate)] | 0.72 | 86 | 0.1334 | 66.8 | 9.31
9 | CCCCCCC(=CC(=O)OCCCCCCN(CCCO)CCCCCCOC(=O)C=C(CCCCCC)CCCCCC)CCCCCC [CPL-071, ((3-hydroxypropyl)azanediyl)bis(hexane-6,1-diyl) (2E,2′E)-bis(3-hexylnon-2-enoate)] | 7.81 | 92 | 0.1733 | 88.06 | 2.05
10 | CCCCCC/C(=C\C(=O)OCCCCCCCCCCN(CCCO)CCCCCCCCCCOC(=O)/C=C(/CCCC)CCCCCC)CCCC [CPL-152, ((3-hydroxypropyl)azanediyl)bis(decane-10,1-diyl) (2Z,2′Z)-bis(3-butylnon-2-enoate)] | 2.62 | 95 | 0.05 | 72.18 | 2.03
11 | CCCCCC/C(=C/C(=O)OCCCCCCCCN(CCCO)CCCCCCCCOC(=O)/C=C(\CCCC)CCCCCC)CCCC [CPL-456-01, ((3-hydroxypropyl)azanediyl)bis(octane-8,1-diyl) (2E,2′E)-bis(3-butylnon-2-enoate)] | 5.51 | 85 | 0.1225 | 70.36 | 7.36
12 | CCCCCC/C(=C/C(=O)OCCCCCCCCN(CCCCO)CCCCCCCCOC(=O)/C=C(\CCCC)CCCCCC)CCCC [CPL-457-01, ((4-hydroxybutyl)azanediyl)bis(octane-8,1-diyl) (2E,2′E)-bis(3-butylnon-2-enoate)] | 12.13 | 90 | 0.078 | 73 | 5.49
13 | CCCCCCCCCC/C(=C/C(=O)OCCCCCCN(CCCO)CCCCCCOC(=O)/C=C(\CCC)CCCCCCCCCC)CCC [CPL-062-01, ((3-hydroxypropyl)azanediyl)bis(hexane-6,1-diyl) (2E,2′E)-bis(3-propyltridec-2-enoate)] | 1.06 | 98 | 0.0828 | 67.12 | 2.21
14 | CCCCCCCCCC/C(=C\C(=O)OCCCCCCCCCN(CCCO)CCCCCCCCCOC(=O)/C=C(\CCCCC)CCCCCCCCCC)CCCCC [CPL-136] | 1.61 | 98 | 0.2 | 92.9 | 2.81
15 | CCCCCCC/C(=C/C(=O)OCCCCCCCN(CCCO)CCCCCCCOC(=O)/C=C(\CCCC)CCCCCCC)CCCC [CPL-096, ((3-hydroxypropyl)azanediyl)bis(heptane-7,1-diyl)(2E,2′E)-bis(3-butyldec-2-enoate)] | 2.59 | 95 | 0.1973 | 71.62 | 2.06
16 | CCCCCCCCCC/C(=C\C(=O)OCCCCCCCN(CCCO)CCCCCCCOC(=O)/C=C(/CCCCCCCC)CCCCCCCCCC)CCCCCCCC [CPL-101, ((3-hydroxypropyl)azanediyl)bis(heptane-7,1-diyl)(2Z,2′Z)-bis(3-octyltridec-2-enoate)] | 1.76 | 95 | 0.0791 | 69.38 | 2.90
